Test results from patent US20170050957A1, “4-AMINO-6-(HETEROCYCLIC)PICOLINATES AND 6-AMINO-2-(HETEROCYCLIC)PYRIMIDINE-4-CARBOXYLATES AND THEIR USE AS HERBICIDES” (Dow AgroSciences LLC, priority 2013, published 2017).

System: Wheat and Barley and test plant species
Test: Post-emergent Test III, herbicidal activity in wheat and barley (Table 17; visual injury, GR20/GR50/GR80/GR90)
Assay type: in vivo
Conditions: 21 d; for Visual Growth Reduction (%) 21 Days After Application, CIRAR / Visual Growth Reduction (%) 21 Days After Application, GALAP / Visual Growth Reduction (%) 21 Days After Application, HORVS / Visual Growth Reduction (%) 21 Days After Application, KCHSC / Visual Growth Reduction (%) 21 Days After Application, LAMPU / Visual Growth Reduction (%) 21 Days After Application, MATCH / Visual Growth Reduction (%) 21 Days After Application, PAPRH / Visual Growth Reduction (%) 21 Days After Application, SASKR / Visual Growth Reduction (%) 21 Days After Application, SINAR / Visual Growth Reduction (%) 21 Days After Application, TRZAS / Visual Growth Reduction (%) 21 Days After Application, VERPE / Visual Growth Reduction (%) 21 Days After Application, VIOTR: post-emergent
Protocol: Post-emergent Test III. Seeds of the desired test plant species were planted in Sun Gro MetroMix® 306 planting mixture, which typically has a pH of 6.0 to 6.8 and an organic matter content of about 30 percent, in plastic pots with a surface area of 103.2 square centimeters (cm^2). When required to ensure good germination and healthy plants, a fungicide treatment and/or other chemical or physical treatment was applied. The plants were grown for 7-36 days (d) in a greenhouse with an approximate 14 hour (h) photoperiod which was maintained at about 18° C. during the day and 17° C. during the night. Nutrients and water were added on a regular basis and supplemental lighting was provided with overhead metal halide 1000-Watt lamps as necessary. The plants were employed for testing when they reached the second or third true leaf stage.
A weighed amount, determined by the highest rate to be tested, of each test compound was placed in a 25 mL glass vial and was dissolved in 4 mL of a 97:3 v/v mixture of acetone and DMSO to obtain concentrated stock solutions. […] The concentrated stock solutions obtained were diluted with 20 mL of an aqueous mixture containing acetone, water, isopropyl alcohol, DMSO, Agri-Dex crop oil concentrate, and X-77 surfactant in a 48:39:10:1.5:1.5:0.02 v/v ratio to obtain spray solutions containing the highest application rates. Additional application rates were obtained by serial dilution of 12 mL of the high rate solution into a solution containing 2 mL of 97:3 v/v mixture of acetone and DMSO and 10 mL of an aqueous mixture containing acetone, water, isopropyl alcohol, DMSO, Agri-Dex crop oil concentrate, and X-77 surfactant in a 48:39:10:1.5:1.5:0.02 v/v ratio to obtain 1/2×, 1/4×, 1/8× and 1/16× rates of the high rate. Compound requirements are based upon a 12 mL application volume at a rate of 187 liters per hectare (L/ha). Formulated compounds were applied to the plant material with an overhead Mandel track sprayer equipped with 8002E nozzles calibrated to deliver 187 L/ha over an application area of 0.503 square meters at a spray height of 18 inches (43 cm) above the average plant canopy height. Control plants were sprayed in the same manner with the solvent blank.
The treated plants and control plants were placed in a greenhouse as described above and watered by subirrigation to prevent wash-off of the test compounds. After 21 d, the condition of the test plants as compared with that of the untreated plants was determined visually and scored on a scale of 0 to 100 percent where 0 corresponds to no injury and 100 corresponds to complete kill. By applying the well-accepted probit analysis as described by J. Berkson in Journal of the American Statistical […], 48, 565 (1953) and by D. Finney in “Probit Analysis” Cambridge University Press (1952), the above data can be used to calculate GR20, GR50, GR80 and GR90 values, which are defined as growth reduction factors that correspond to the effective dose of herbicide required to kill or control 20 percent, 50 percent, 80 percent or 90 percent, respectively, of a target plant.

COC(=O)c1nc(-c2ccc3cc[nH]c3c2F)c(F)c(N)c1Cl [Compound 1.15, Methyl 4-amino-3-chloro-5-fluoro-6-(7-fluoro-1H-indol-6-yl)picolinate]
Visual Growth Reduction (%) 21 Days After Application, CIRAR (CIRAR, 17.5 g ai/ha): F (30-44)
Visual Growth Reduction (%) 21 Days After Application, CIRAR (CIRAR, 35 g ai/ha): D (60-74)
Visual Growth Reduction (%) 21 Days After Application, CIRAR (CIRAR, 70 g ai/ha): C (75-84)
GR50, CIRAR (CIRAR, dose for 50 percent growth reduction, probit analysis): 30 g ai/ha
GR80, CIRAR (CIRAR, dose for 80 percent growth reduction, probit analysis): 70 g ai/ha
GR90, CIRAR (CIRAR, dose for 90 percent growth reduction, probit analysis): 109 g ai/ha
Visual Growth Reduction (%) 21 Days After Application, GALAP (GALAP, 17.5 g ai/ha): D (60-74)
Visual Growth Reduction (%) 21 Days After Application, GALAP (GALAP, 35 g ai/ha): B (85-94)
Visual Growth Reduction (%) 21 Days After Application, GALAP (GALAP, 70 g ai/ha): A (95-100)
GR50, GALAP (GALAP, dose for 50 percent growth reduction, probit analysis): 9 g ai/ha
GR80, GALAP (GALAP, dose for 80 percent growth reduction, probit analysis): 23 g ai/ha
GR90, GALAP (GALAP, dose for 90 percent growth reduction, probit analysis): 37 g ai/ha
Visual Growth Reduction (%) 21 Days After Application, HORVS (HORVS, 17.5 g ai/ha): F (30-44)
Visual Growth Reduction (%) 21 Days After Application, HORVS (HORVS, 35 g ai/ha): E (45-59)
Visual Growth Reduction (%) 21 Days After Application, HORVS (HORVS, 70 g ai/ha): E (45-59)
GR20, HORVS (HORVS, dose for 20 percent growth reduction, probit analysis): 8 g ai/ha
Visual Growth Reduction (%) 21 Days After Application, KCHSC (KCHSC, 17.5 g ai/ha): D (60-74)
Visual Growth Reduction (%) 21 Days After Application, KCHSC (KCHSC, 35 g ai/ha): B (85-94)
Visual Growth Reduction (%) 21 Days After Application, KCHSC (KCHSC, 70 g ai/ha): B (85-94)
GR50, KCHSC (KCHSC, dose for 50 percent growth reduction, probit analysis): 6 g ai/ha
GR80, KCHSC (KCHSC, dose for 80 percent growth reduction, probit analysis): 28 g ai/ha
GR90, KCHSC (KCHSC, dose for 90 percent growth reduction, probit analysis): 67 g ai/ha
Visual Growth Reduction (%) 21 Days After Application, LAMPU (LAMPU, 17.5 g ai/ha): A (95-100)
Visual Growth Reduction (%) 21 Days After Application, LAMPU (LAMPU, 35 g ai/ha): A (95-100)
Visual Growth Reduction (%) 21 Days After Application, LAMPU (LAMPU, 70 g ai/ha): A (95-100)
GR50, LAMPU (LAMPU, dose for 50 percent growth reduction, probit analysis): 0.10 g ai/ha
GR80, LAMPU (LAMPU, dose for 80 percent growth reduction, probit analysis): 1 g ai/ha
GR90, LAMPU (LAMPU, dose for 90 percent growth reduction, probit analysis): 2 g ai/ha
Visual Growth Reduction (%) 21 Days After Application, MATCH (MATCH, 17.5 g ai/ha): F (30-44)
Visual Growth Reduction (%) 21 Days After Application, MATCH (MATCH, 35 g ai/ha): E (45-59)
Visual Growth Reduction (%) 21 Days After Application, MATCH (MATCH, 70 g ai/ha): D (60-74)
GR50, MATCH (MATCH, dose for 50 percent growth reduction, probit analysis): 45 g ai/ha
GR80, MATCH (MATCH, dose for 80 percent growth reduction, probit analysis): >140 g ai/ha
GR90, MATCH (MATCH, dose for 90 percent growth reduction, probit analysis): >140 g ai/ha
Visual Growth Reduction (%) 21 Days After Application, PAPRH (PAPRH, 17.5 g ai/ha): A (95-100)
Visual Growth Reduction (%) 21 Days After Application, PAPRH (PAPRH, 35 g ai/ha): A (95-100)
Visual Growth Reduction (%) 21 Days After Application, PAPRH (PAPRH, 70 g ai/ha): A (95-100)
GR50, PAPRH (PAPRH, dose for 50 percent growth reduction, probit analysis): 0.06 g ai/ha
GR80, PAPRH (PAPRH, dose for 80 percent growth reduction, probit analysis): 1 g ai/ha
GR90, PAPRH (PAPRH, dose for 90 percent growth reduction, probit analysis): 2 g ai/ha
Visual Growth Reduction (%) 21 Days After Application, SASKR (SASKR, 17.5 g ai/ha): C (75-84)
Visual Growth Reduction (%) 21 Days After Application, SASKR (SASKR, 35 g ai/ha): C (75-84)
Visual Growth Reduction (%) 21 Days After Application, SASKR (SASKR, 70 g ai/ha): B (85-94)
GR50, SASKR (SASKR, dose for 50 percent growth reduction, probit analysis): 7 g ai/ha
GR80, SASKR (SASKR, dose for 80 percent growth reduction, probit analysis): 30 g ai/ha
GR90, SASKR (SASKR, dose for 90 percent growth reduction, probit analysis): 95 g ai/ha
Visual Growth Reduction (%) 21 Days After Application, SINAR (SINAR, 17.5 g ai/ha): A (95-100)
Visual Growth Reduction (%) 21 Days After Application, SINAR (SINAR, 35 g ai/ha): A (95-100)
Visual Growth Reduction (%) 21 Days After Application, SINAR (SINAR, 70 g ai/ha): A (95-100)
GR50, SINAR (SINAR, dose for 50 percent growth reduction, probit analysis): 4 g ai/ha
GR80, SINAR (SINAR, dose for 80 percent growth reduction, probit analysis): 8 g ai/ha
GR90, SINAR (SINAR, dose for 90 percent growth reduction, probit analysis): 12 g ai/ha
Visual Growth Reduction (%) 21 Days After Application, TRZAS (TRZAS, 17.5 g ai/ha): F (30-44)
Visual Growth Reduction (%) 21 Days After Application, TRZAS (TRZAS, 35 g ai/ha): E (45-59)
Visual Growth Reduction (%) 21 Days After Application, TRZAS (TRZAS, 70 g ai/ha): D (60-74)
GR20, TRZAS (TRZAS, dose for 20 percent growth reduction, probit analysis): 13 g ai/ha
Visual Growth Reduction (%) 21 Days After Application, VERPE (VERPE, 17.5 g ai/ha): A (95-100)
Visual Growth Reduction (%) 21 Days After Application, VERPE (VERPE, 35 g ai/ha): A (95-100)
Visual Growth Reduction (%) 21 Days After Application, VERPE (VERPE, 70 g ai/ha): A (95-100)
GR50, VERPE (VERPE, dose for 50 percent growth reduction, probit analysis): 0.28 g ai/ha
GR80, VERPE (VERPE, dose for 80 percent growth reduction, probit analysis): 2 g ai/ha
GR90, VERPE (VERPE, dose for 90 percent growth reduction, probit analysis): 6 g ai/ha
Visual Growth Reduction (%) 21 Days After Application, VIOTR (VIOTR, 17.5 g ai/ha): E (45-59)
Visual Growth Reduction (%) 21 Days After Application, VIOTR (VIOTR, 35 g ai/ha): D (60-74)
Visual Growth Reduction (%) 21 Days After Application, VIOTR (VIOTR, 70 g ai/ha): C (75-84)
GR50, VIOTR (VIOTR, dose for 50 percent growth reduction, probit analysis): 22 g ai/ha
GR80, VIOTR (VIOTR, dose for 80 percent growth reduction, probit analysis): 63 g ai/ha
GR90, VIOTR (VIOTR, dose for 90 percent growth reduction, probit analysis): 111 g ai/ha
